PubChem BioAssay (NCI)
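The compound was tested at five concentrations on cells cultured in 96-well plates, with a 48-hour exposure period. The concentration for full growth arrest is given as TGI.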

Legend:
Assay in all cases: DTP human tumour cell line panel, 48 h
EKVX NSCLC = test system: EKVX NSCLC
SK-MEL-28 melanoma = test system: SK-MEL-28 melanoma
SW-620 colon = test system: SW-620 colon
MCF7 breast = test system: MCF7 breast
ACHN renal = test system: ACHN renal
U251 CNS = test system: U251 CNS
A498 renal = test system: A498 renal
TK-10 renal = test system: TK-10 renal
MDA-N = test system: MDA-N
K-562 leukemia = test system: K-562 leukemia
SK-MEL-2 melanoma = test system: SK-MEL-2 melanoma
786-0 renal = test system: 786-0 renal
HOP-92 NSCLC = test system: HOP-92 NSCLC
T-47D breast = test system: T-47D breast
NCI/ADR-RES ovarian = test system: NCI/ADR-RES ovarian
SF-295 CNS = test system: SF-295 CNS
CAKI-1 renal = test system: CAKI-1 renal
LOX IMVI melanoma = test system: LOX IMVI melanoma
HT29 colon = test system: HT29 colon
NCI-H460 lung = test system: NCI-H460 lung
SR leukemia = test system: SR leukemia
HS 578T breast = test system: HS 578T breast
UACC-62 melanoma = test system: UACC-62 melanoma
NCI-H522 lung = test system: NCI-H522 lung
RXF 393 renal = test system: RXF 393 renal
SK-MEL-5 melanoma = test system: SK-MEL-5 melanoma
UO-31 renal = test system: UO-31 renal
OVCAR-5 ovarian = test system: OVCAR-5 ovarian
CCRF-CEM leukemia = test system: CCRF-CEM leukemia
PC-3 prostate = test system: PC-3 prostate
SN12C renal = test system: SN12C renal
HCT-116 colon = test system: HCT-116 colon
OVCAR-4 ovarian = test system: OVCAR-4 ovarian
COLO 205 colon = test system: COLO 205 colon
KM12 colon = test system: KM12 colon
HCC-2998 colon = test system: HCC-2998 colon
SF-539 CNS = test system: SF-539 CNS
DU-145 prostate = test system: DU-145 prostate
SK-OV-3 ovarian = test system: SK-OV-3 ovarian
OVCAR-8 ovarian = test system: OVCAR-8 ovarian
MALME-3M melanoma = test system: MALME-3M melanoma
HCT-15 colon = test system: HCT-15 colon
MDA-MB-231 breast = test system: MDA-MB-231 breast
SF-268 CNS = test system: SF-268 CNS
UACC-257 melanoma = test system: UACC-257 melanoma
MOLT-4 leukemia = test system: MOLT-4 leukemia
M14 melanoma = test system: M14 melanoma
SNB-19 CNS = test system: SNB-19 CNS
SNB-75 CNS = test system: SNB-75 CNS
NCI-H23 lung = test system: NCI-H23 lung
A549 NSCLC = test system: A549 NSCLC
RPMI-8226 leukemia = test system: RPMI-8226 leukemia
NCI-H226 lung = test system: NCI-H226 lung
OVCAR-3 ovarian = test system: OVCAR-3 ovarian
HOP-62 NSCLC = test system: HOP-62 NSCLC
MDA-MB-435 = test system: MDA-MB-435
HL-60(TB) leukemia = test system: HL-60(TB) leukemia
IGROV1 ovarian = test system: IGROV1 ovarian

With `c1cnc2c(c1)Nc1cnncc1S2` the TGI (EKVX NSCLC) was > 100 µM, the TGI (SK-MEL-28 melanoma) was > 100 µM and the TGI (SW-620 colon) was > 100 µM. The TGI (MCF7 breast) was > 100 µM, the TGI (ACHN renal) was > 100 µM and the TGI (U251 CNS) was > 100 µM. The TGI (A498 renal) was > 100 µM, the TGI (TK-10 renal) was > 100 µM and the TGI (MDA-N) was > 100 µM. For the same compound, the TGI (K-562 leukemia) was > 100 µM, the TGI (SK-MEL-2 melanoma) was > 100 µM and the TGI (786-0 renal) was > 100 µM. For the same compound, the TGI (HOP-92 NSCLC) was > 100 µM, the TGI (T-47D breast) was > 100 µM and the TGI (NCI/ADR-RES ovarian) was > 100 µM. The TGI (SF-295 CNS) was > 100 µM, the TGI (CAKI-1 renal) was > 100 µM and the TGI (LOX IMVI melanoma) was > 100 µM. For the same compound, the TGI (HT29 colon) was > 100 µM, the TGI (NCI-H460 lung) was > 100 µM and the TGI (SR leukemia) was > 100 µM. The TGI (HS 578T breast) was > 100 µM, the TGI (UACC-62 melanoma) was > 100 µM and the TGI (NCI-H522 lung) was > 100 µM. For the same compound, the TGI (RXF 393 renal) was > 100 µM, the TGI (SK-MEL-5 melanoma) was > 100 µM and the TGI (UO-31 renal) was > 100 µM. For the same compound, the TGI (OVCAR-5 ovarian) was > 100 µM, the TGI (CCRF-CEM leukemia) was > 100 µM and the TGI (PC-3 prostate) was > 100 µM. The TGI (SN12C renal) was > 100 µM, the TGI (HCT-116 colon) was > 100 µM and the TGI (OVCAR-4 ovarian) was > 100 µM. The TGI (COLO 205 colon) was > 100 µM, the TGI (KM12 colon) was > 100 µM and the TGI (HCC-2998 colon) was > 100 µM. For the same compound, the TGI (SF-539 CNS) was > 100 µM, the TGI (DU-145 prostate) was > 100 µM and the TGI (SK-OV-3 ovarian) was > 100 µM. For the same compound, the TGI (OVCAR-8 ovarian) was > 100 µM, the TGI (MALME-3M melanoma) was > 100 µM and the TGI (HCT-15 colon) was > 100 µM. The TGI (MDA-MB-231 breast) was > 100 µM, the TGI (SF-268 CNS) was > 100 µM and the TGI (UACC-257 melanoma) was > 100 µM. For the same compound, the TGI (MOLT-4 leukemia) was > 100 µM, the TGI (M14 melanoma) was > 100 µM and the TGI (SNB-19 CNS) was > 100 µM. For the same compound, the TGI (SNB-75 CNS) was 97.8 µM, the TGI (NCI-H23 lung) was > 100 µM and the TGI (A549 NSCLC) was > 100 µM. For the same compound, the TGI (RPMI-8226 leukemia) was > 100 µM, the TGI (NCI-H226 lung) was > 100 µM and the TGI (OVCAR-3 ovarian) was > 100 µM. For the same compound, the TGI (HOP-62 NSCLC) was > 100 µM, the TGI (MDA-MB-435) was > 100 µM and the TGI (HL-60(TB) leukemia) was > 100 µM. For the same compound, the TGI (IGROV1 ovarian) was > 100 µM.

`COC(=O)/C(=C\C(=O)c1ccc(Br)cc1)NN=C(c1ccccc1)c1ccccc1` was tested, and the TGI (EKVX NSCLC) was > 10 µM, the TGI (SK-MEL-28 melanoma) was > 10 µM and the TGI (SW-620 colon) was > 10 µM. The TGI (MCF7 breast) was > 10 µM, the TGI (TK-10 renal) was > 10 µM and the TGI (MDA-N) was > 10 µM. For the same compound, the TGI (K-562 leukemia) was > 10 µM, the TGI (786-0 renal) was > 10 µM and the TGI (HOP-92 NSCLC) was > 10 µM. The TGI (T-47D breast) was > 10 µM, the TGI (SF-295 CNS) was > 10 µM and the TGI (CAKI-1 renal) was > 10 µM. For the same compound, the TGI (LOX IMVI melanoma) was > 10 µM, the TGI (HT29 colon) was > 10 µM and the TGI (SR leukemia) was > 10 µM. The TGI (UACC-62 melanoma) was > 10 µM, the TGI (RXF 393 renal) was > 10 µM and the TGI (SK-MEL-5 melanoma) was > 10 µM. For the same compound, the TGI (CCRF-CEM leukemia) was > 10 µM, the TGI (PC-3 prostate) was > 10 µM and the TGI (SN12C renal) was > 10 µM. For the same compound, the TGI (OVCAR-4 ovarian) was > 10 µM, the TGI (COLO 205 colon) was > 10 µM and the TGI (KM12 colon) was > 10 µM. For the same compound, the TGI (HCC-2998 colon) was > 10 µM, the TGI (DU-145 prostate) was > 10 µM and the TGI (SK-OV-3 ovarian) was > 10 µM. The TGI (OVCAR-8 ovarian) was > 10 µM, the TGI (MALME-3M melanoma) was > 10 µM and the TGI (HCT-15 colon) was > 10 µM. For the same compound, the TGI (MDA-MB-231 breast) was > 10 µM, the TGI (SF-268 CNS) was > 10 µM and the TGI (UACC-257 melanoma) was > 10 µM. For the same compound, the TGI (MOLT-4 leukemia) was > 10 µM, the TGI (M14 melanoma) was > 10 µM and the TGI (SNB-75 CNS) was > 10 µM. The TGI (NCI-H23 lung) was > 10 µM, the TGI (A549 NSCLC) was > 10 µM and the TGI (RPMI-8226 leukemia) was > 10 µM. The TGI (HOP-62 NSCLC) was > 10 µM, the TGI (MDA-MB-435) was > 10 µM and the TGI (HL-60(TB) leukemia) was > 10 µM. For the same compound, the TGI (IGROV1 ovarian) was > 10 µM.
